Patent US20240368104A1, “Novel Dialkoxynaphtho[2,3-C]Furan-1(3H)-One Derivatives and Pharmaceutical Composition For Preventing or Treating Respiratory Disease or SARS-COV-2 Infection Disease, Comprising Same” (priority 2021, published 2024)
Read-outs that look alike come from different tables or passages of the source.

Key:
[1] = system: IL-5 expression in Th2 cells; assay: Inhibition of IL-5 expression in Th2 cells (ELISA); format: cell-based, Balb/C mice; details: Splenocyte, read-out: Inhibitory ability against IL-5 expression (%)
Description: Specifically, after spleens were collected from Balb/C mice, CD4+ T cells were isolated therefrom and were seeded at 1-2×10^6 per well into a 48-well tissue culture plate coated with anti-CD3 (5 ug/ml) and anti-CD28 (1 ug/ml). At this time, the culture medium was incubated with IL-2 (20 ng/ml), IL-4 (100 ng/ml), anti-IFNγ (10 ug/ml), anti-IL12 (10 ug/ml), and a derivative of 1 nM for two days, transferred to a new tissue culture plate, and further cultured for three days to induce differentiation into Th2 cells. After replacing with a new medium containing anti-IFNγ (10 ug/ml), anti-IL12 (10 ug/ml) and a derivative of 1 nM, polarization of Th2 cells was induced using PMA and A23187. After two days of culture, the cells were centrifuged and the culture medium was taken to perform IL-5 ELISA. IL-5 ELISA was performed according to the test method of the kit manufacturer.

in vitro = details: African green monkey
SARS-COV-2 = assay: microbe, parasite or virus in culture; format: cell-based; parameters: SI (Selectivity Index, CC50/IC50): unit not given here; details: for SI (Selectivity Index, CC50/IC50): SARS-COV-2, values >50 assumed to be 50; for IC50: read-out: SARS-COV-2 inhibition (IC50)
[2] = Th2 cells from mouse splenocytes, compound 1 nM
[3] = Severe acute respiratory syndrome coronavirus 2, Vero cells, 24 hours infection
[4] = Severe acute respiratory syndrome coronavirus 2, Vero, 24 h

Structure (SMILES)	inhibition at 0.001 µM [1, 2]	CC50 (in vitro)	SI (Selectivity Index, CC50/IC50) (SARS-COV-2)	IC50 (SARS-COV-2; [3])	inhibition at 0.001 µM ([1]; Mus musculus)	IC50 (SARS-COV-2; [4])
COc1cc2cc3c(c(N[C@H]4CCc5c(cccc5OC)C4)c2cc1OC)C(=O)OC3 [Example 1, (S)-6,7-dimethoxy-9-((5-methoxy-1,2,3,4-tetrahydronaphthalen-2-yl)amino)naphtho[2,3-c]furan-1(3H)-one]	61.9%	> 50 µM	1.00	> 50 µM	–	–
COc1cc2cc3c(c(-c4cnc(OCCN5CCOCC5)nc4)c2cc1OC)C(=O)OC3 [Example 13, 6,7-dimethoxy-9-(2-(2-morpholinoethoxy)pyrimidin-5-yl)naphtho[2,3-c]furan-1(3H)-one]	67.7%	> 50 µM	1.00	> 50 µM	–	–
COc1cc2cc3c(c(-c4cnc(Nc5ccc(C)c(C)c5)nc4)c2cc1OC)C(=O)OC3 [Example 14, 9-(2-((3,4-dimethylphenyl)amino)pyrimidin-5-yl)-6,7-dimethoxynaphtho[2,3-c]furan-1(3H)-one]	58.9%	> 50 µM	3.31	15.1 µM	–	–
CCOC(=O)C1CCCN(c2ncc(-c3c4c(cc5cc(OC)c(OC)cc35)COC4=O)cn2)C1 (stereo not drawn) [Example 15, Ethyl 1-(5-(6,7-dimethoxy-3-oxo-1,3-dihydronaphtho[2,3-c]furan-4-yl)pyrimidin-2-yl) piperidin-3-carboxylate]	82.9%	> 50 µM	11.37	4.4 µM	–	–
COc1cc2cc3c(c(-c4cnc(NCCCn5ccnc5)nc4)c2cc1OC)C(=O)OC3 [Example 16, 9-(2-((3-(1H-imidazol-1-yl)propyl)amino)pyrimidin-5-yl)-6,7-dimethoxynaphtho[2,3-c]furan-1(3H)-one]	70.8%	> 50 µM	1.6	31.2 µM	–	–
COc1cc2cc3c(c(-c4cnc(O[C@H]5CN6CCC5CC6)nc4)c2cc1OC)C(=O)OC3 [Example 17, (R)-6,7-dimethoxy-9-(2-(quinuclidin-3-yloxy)pyrimidin-5-yl)naphtho[2,3-c]furan-1(3H)-one]	–	> 50 µM	1.59	–	55.2%	31.4 µM
COCCN(C)c1ncc(-c2c3c(cc4cc(OC)c(OC)cc24)COC3=O)cn1 [Example 18, 6,7-dimethoxy-9-(2-((2-methoxyethyl)(methyl)amino)pyrimidin-5-yl)naphtho[2,3-c]furan-1(3H)-one]	72.3%	> 50 µM	99.07	0.5 µM	–	–
CCOC(=O)[C@@H]1CCCN1c1ncc(-c2c3c(cc4cc(OC)c(OC)cc24)COC3=O)cn1 [Example 19, (S)ethyl 1-(5-(6,7-dimethoxy-3-oxo-1,3-dihydronaphtho[2,3-c]furan-4-yl)pyrimidin-2-yl)pyrrolidin-2-carboxylate]	92.3%	> 50 µM	1.60	31.3 µM	–	–
COc1cc2cc3c(c(-c4cnc(Oc5ccc6c(c5)OCO6)nc4)c2cc1OC)C(=O)OC3 [Example 20, 9-(2-(benzo[d][1,3]dioxol-5-yloxy)pyrimidin-5-yl)-6,7-dimethoxynaphtho[2,3-c]furan-1(3H)-one]	40.8%	> 50 µM	1.00	> 50 µM	–	–
COc1cc2cc3c(c(-c4cnc(N[C@H]5CCc6c(cccc6OC)C5)nc4)c2cc1OC)C(=O)OC3 [Example 22, (S)-6,7-dimethoxy-9-(2-((5-methoxy-1,2,3,4-tetrahydronaphthalen-2-yl)amino)pyrimidin-5-yl)naphtho[2,3-c]furan-1(3H)-one]	59.9%	> 50 µM	10.64	4.7 µM	–	–
COc1cc2cc3c(c(-c4cnc(N(C)C(C)C)nc4)c2cc1OC)C(=O)OC3 [Example 23, 9-(2-(isopropyl(methyl)amino)pyrimidin-5-yl)-6,7-dimethoxynaphtho[2,3-c]furan-1(3H)-one]	68.2%	> 50 µM	61.34	0.08 µM	–	–
COc1cc2cc3c(c(-c4cnc(N5CCC[C@H]5C(=O)N5C[C@@H](C)O[C@@H](C)C5)nc4)c2cc1OC)C(=O)OC3 [Example 24, 9-(2-((S)-2-((2S,6R)-2,6-dimethylmorpholin-4-carbonyl)pyrrolidin-1-yl)pyrimidin-5-yl)-6,7-dimethoxynaphtho[2,3-c]furan-1(3H)-one]	72.3%	> 50 µM	1.00	> 50 µM	–	–
CCC(C)Oc1ncc(-c2c3c(cc4cc(OC)c(OC)cc24)COC3=O)cn1 (stereo not drawn) [Example 25, 9-(2-(sec-butoxy)pyrimidin-5-yl)-6,7-dimethoxynaphtho[2,3-c]furan-1(3H)-one]	56.8%	> 50 µM	1.00	> 50 µM	–	–
CCCOCCNc1ncc(-c2c3c(cc4cc(OC)c(OC)cc24)COC3=O)cn1 [Example 37, 6,7-dimethoxy-9-(2-((2-propoxyethyl)amino)pyrimidin-5-yl)naphtho[2,3-c]furan-1(3H)-one]	56%	> 50 µM	1.00	> 50 µM	–	–
COC(=O)[C@@H](C)NC(=O)[C@@H]1CCCN1c1ncc(-c2c3c(cc4cc(OC)c(OC)cc24)COC3=O)cn1 [Example 38, Methyl (5-(6,7-dimethoxy-3-oxo-1,3-dihydronaphtho[2,3-c]furan-4-yl)pyrimidin-2-yl)-L-prolyl-D-alaninate]	62.8%	–	–	–	–	–
COc1cc2cc3c(c(-c4cnc(N5CCC[C@H]5C(=O)N[C@@H](C)c5ccc(F)cc5)nc4)c2cc1OC)C(=O)OC3 [Example 39, (S)-1-(5-(6,7-dimethoxy-3-oxo-1,3-dihydronaphtho[2,3-c]furan-4-yl)pyrimidin-2-yl)-N—((S)-1-(4-fluorophenyl)ethyl)pyrrolidin-2-carboxamide]	47.7%	> 50 µM	1.98	13.6 µM	–	–
CCOC(=O)CNc1ncc(-c2c3c(cc4cc(OC)c(OC)cc24)COC3=O)cn1 [Example 44, Ethyl (5-(6,7-dimethoxy-3-oxo-1,3-dihydronaphtho[2,3-c]furan-4-yl)pyrimidin-2-yl)glycinate]	58.3%	–	–	–	–	–
CCOC(=O)CNC(=O)[C@@H]1CCCN1c1ncc(-c2c3c(cc4cc(OC)c(OC)cc24)COC3=O)cn1 [Example 45, Ethyl (5-(6,7-dimethoxy-3-oxo-1,3-dihydronaphtho[2,3-c]furan-4-yl)pyrimidin-2-yl)-L-proglycinate]	64.2%	–	–	–	–	–
COc1cc2cc3c(c(-c4cc5c(cc4OC(=O)C(C)(C)C)OCO5)c2cc1OC)C(=O)OC3 [Example 276, 6-(6,7-dimethoxy-3-oxo-1,3-dihydronaphtho[2,3-c]furan-4-yl)benzo[d][1,3]dioxol-5-yl pivalate]	–	> 50 µM	1.00	> 50 µM	–	–
CCOP(=O)(OCC)Oc1cc2c(cc1-c1c3c(cc4cc(OC)c(OC)cc14)COC3=O)OCO2 [Example 277, 6-(6,7-dimethoxy-3-oxo-1,3-dihydronaphtho[2,3-c]furan-4-yl)benzo[d][1,3]dioxol-5-yl diethyl phosphate]	–	> 50 µM	1.00	–	–	> 50 µM
COc1cc2cc3c(c(-c4cc5c(cc4OP(=O)(NC(C)C)Oc4ccccc4)OCO5)c2cc1OC)C(=O)OC3 (stereo not drawn) [Example 278, 6-(6,7-dimethoxy-3-oxo-1,3-dihydronaphtho[2,3-c]furan-4-yl)benzo[d][1,3]dioxol-5-yl phenyl isopropylphosphoramidate]	–	> 50 µM	1.00	–	–	> 50 µM
COc1cc2cc3c(c(-c4cc5c(cc4OP(=O)(NCCN4CCOCC4)Oc4ccccc4)OCO5)c2cc1OC)C(=O)OC3 (stereo not drawn) [Example 279, 6-(6,7-dimethoxy-3-oxo-1,3-dihydronaphtho[2,3-c]furan-4-yl)benzo[d][1,3]dioxol-5-yl phenyl (2-morpholinoethyl)phosphoramidate]	–	> 50 µM	8.21	–	–	6.09 µM
COc1cc2cc3c(c(-c4cc5c(cc4OP(=O)(NCCN4CCOCC4)c4ccccc4)OCO5)c2cc1OC)C(=O)OC3 (stereo not drawn) [Example 280, 6-(6,7-dimethoxy-3-oxo-1,3-dihydronaphtho[2,3-c]furan-4-yl)benzo[d][1,3]dioxol-5-yl N-(2-morpholinoethyl)-P-phenylphosphoramidate]	–	> 50 µM	25.56	–	–	1.96 µM
COc1cc2cc3c(c(-c4cc5c(cc4OP(=O)(NC(C)C)c4ccccc4)OCO5)c2cc1OC)C(=O)OC3 (stereo not drawn) [Example 281, 6-(6,7-dimethoxy-3-oxo-1,3-dihydronaphtho[2,3-c]furan-4-yl)benzo[d][1,3]dioxol-5-yl N-isopropyl-P-phenylphosphoramidate]	–	> 50 µM	3.45	–	–	14.5 µM
